Source: paper PMC6199744, “Development of Chemical Proteomics for the Folateome and Analysis of the Kinetoplastid Folateome” (ACS Infectious Diseases, 2018)
Read-outs that look alike come from different tables or passages of the source.

Assays:
Type in all cases: binding
[1] = biological target: T1, HeLa cell extract proteins (Homo sapiens, UniProt P06753)
T1 construct: endogenous in cells; host or cells: HeLa cell extract

[2] = biological target: T2, HeLa cell extract proteins (Homo sapiens, UniProt P24666)
T2 construct: endogenous in cells; host or cells: HeLa cell extract
T2 sequence (P24666 1-158): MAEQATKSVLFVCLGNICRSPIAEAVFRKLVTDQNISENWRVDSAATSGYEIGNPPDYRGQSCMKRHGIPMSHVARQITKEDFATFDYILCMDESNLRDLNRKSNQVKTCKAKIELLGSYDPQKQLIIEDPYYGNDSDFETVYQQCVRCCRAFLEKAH

[3] = biological target: T3, HeLa cell extract proteins (Homo sapiens, UniProt P17858)
T3 construct: endogenous in cells; host or cells: HeLa cell extract
T3 sequence (P17858 1-780): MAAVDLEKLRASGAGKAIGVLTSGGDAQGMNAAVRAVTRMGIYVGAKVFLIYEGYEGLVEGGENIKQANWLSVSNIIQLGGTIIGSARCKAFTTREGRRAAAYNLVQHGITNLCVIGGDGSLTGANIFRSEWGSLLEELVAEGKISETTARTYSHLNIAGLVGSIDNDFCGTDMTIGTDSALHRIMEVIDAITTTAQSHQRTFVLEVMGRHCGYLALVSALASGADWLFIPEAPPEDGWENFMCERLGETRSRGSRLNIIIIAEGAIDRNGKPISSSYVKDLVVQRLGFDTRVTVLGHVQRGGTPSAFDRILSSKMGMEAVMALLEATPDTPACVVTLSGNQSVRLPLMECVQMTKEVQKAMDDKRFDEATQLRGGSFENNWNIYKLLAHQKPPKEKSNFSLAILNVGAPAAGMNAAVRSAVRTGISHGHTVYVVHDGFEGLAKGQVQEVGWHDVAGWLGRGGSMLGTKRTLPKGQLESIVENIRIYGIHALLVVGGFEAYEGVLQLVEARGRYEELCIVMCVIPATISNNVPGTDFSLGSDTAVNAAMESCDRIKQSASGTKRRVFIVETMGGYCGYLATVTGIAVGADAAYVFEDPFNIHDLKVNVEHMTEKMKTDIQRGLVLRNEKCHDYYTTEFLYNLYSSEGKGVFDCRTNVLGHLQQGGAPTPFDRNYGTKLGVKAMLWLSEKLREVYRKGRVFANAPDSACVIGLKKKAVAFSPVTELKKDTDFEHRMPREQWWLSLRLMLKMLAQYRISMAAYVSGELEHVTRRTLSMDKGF

[4] = biological target: T4, HeLa cell extract proteins (Homo sapiens, UniProt Q9Y5L0)
T4 construct: endogenous in cells; host or cells: HeLa cell extract
T4 sequence (Q9Y5L0 1-923): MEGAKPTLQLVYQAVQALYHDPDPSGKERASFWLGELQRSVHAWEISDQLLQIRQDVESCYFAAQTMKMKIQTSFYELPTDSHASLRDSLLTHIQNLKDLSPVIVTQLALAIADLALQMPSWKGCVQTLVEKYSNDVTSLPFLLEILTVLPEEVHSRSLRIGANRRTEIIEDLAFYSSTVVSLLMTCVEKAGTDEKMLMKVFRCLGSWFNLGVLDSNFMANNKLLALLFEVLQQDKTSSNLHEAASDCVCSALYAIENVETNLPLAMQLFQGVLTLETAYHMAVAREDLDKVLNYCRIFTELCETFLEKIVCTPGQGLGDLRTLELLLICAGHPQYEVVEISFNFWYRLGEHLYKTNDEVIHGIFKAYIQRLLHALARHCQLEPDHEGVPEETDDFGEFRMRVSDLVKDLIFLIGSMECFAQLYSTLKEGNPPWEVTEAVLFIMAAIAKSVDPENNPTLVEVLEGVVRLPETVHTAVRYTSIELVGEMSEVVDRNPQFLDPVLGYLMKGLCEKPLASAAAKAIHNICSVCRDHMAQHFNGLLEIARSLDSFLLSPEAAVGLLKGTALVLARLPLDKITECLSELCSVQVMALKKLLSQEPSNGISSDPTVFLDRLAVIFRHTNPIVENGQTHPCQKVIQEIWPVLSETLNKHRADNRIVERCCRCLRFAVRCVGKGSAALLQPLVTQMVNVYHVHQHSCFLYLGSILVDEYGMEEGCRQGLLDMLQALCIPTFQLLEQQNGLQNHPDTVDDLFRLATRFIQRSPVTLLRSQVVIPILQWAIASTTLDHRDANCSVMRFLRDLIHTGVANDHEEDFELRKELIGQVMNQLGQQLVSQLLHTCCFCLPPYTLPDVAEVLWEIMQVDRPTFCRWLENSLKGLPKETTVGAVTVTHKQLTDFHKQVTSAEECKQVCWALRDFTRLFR

[5] = biological target: T5, HeLa cell extract proteins (Homo sapiens, UniProt P62333)
T5 construct: endogenous in cells; host or cells: HeLa cell extract
T5 sequence (P62333 whole entry): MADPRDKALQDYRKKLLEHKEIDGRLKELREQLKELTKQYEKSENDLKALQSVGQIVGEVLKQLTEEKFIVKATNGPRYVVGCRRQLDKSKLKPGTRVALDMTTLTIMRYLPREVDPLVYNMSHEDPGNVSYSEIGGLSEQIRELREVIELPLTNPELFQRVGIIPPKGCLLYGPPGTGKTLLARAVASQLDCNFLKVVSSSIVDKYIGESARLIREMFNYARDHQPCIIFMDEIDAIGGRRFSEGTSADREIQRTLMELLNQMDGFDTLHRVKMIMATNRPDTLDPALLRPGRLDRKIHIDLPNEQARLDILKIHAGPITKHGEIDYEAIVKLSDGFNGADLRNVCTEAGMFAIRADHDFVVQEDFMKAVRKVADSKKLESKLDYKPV

T1 sequence (P06753 whole entry): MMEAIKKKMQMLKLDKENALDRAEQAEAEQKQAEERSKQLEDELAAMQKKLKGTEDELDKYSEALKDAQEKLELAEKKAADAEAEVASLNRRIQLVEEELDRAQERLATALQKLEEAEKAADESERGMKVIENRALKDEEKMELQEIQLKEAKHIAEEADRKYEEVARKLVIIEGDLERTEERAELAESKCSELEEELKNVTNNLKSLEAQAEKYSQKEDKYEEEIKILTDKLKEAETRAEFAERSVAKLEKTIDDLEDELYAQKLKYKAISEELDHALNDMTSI

SMILES	fold changes relative to vehicle control ([1]; protein TPM3, HeLa)	fold changes relative to vehicle control ([2]; protein ACP1, HeLa)	fold changes relative to vehicle control ([3]; HeLa, protein PFKL)	fold changes relative to vehicle control ([4]; HeLa, captured protein TNPO3)	fold changes relative to vehicle control ([5]; protein PSMC6, HeLa)	fold changes relative to vehicle control [1]	fold changes relative to vehicle control [2]	fold changes relative to vehicle control [3]	fold changes relative to vehicle control [4]	fold changes relative to vehicle control [5]	fold changes relative to vehicle control ([2]; HeLa, protein ACP1)	fold changes relative to vehicle control ([3]; captured protein PFKL, HeLa)	fold changes relative to vehicle control ([4]; HeLa, protein TNPO3)
Nc1nc2c(c(=O)[nH]1)N(C=O)C(CNc1ccc(C(=O)N[C@@H](CCC(=O)O)C(=O)O)cc1)CN2 (some centres unmarked) [LEU, leucovorin]	0.93	0.72	0.96	0.95	0.84	–	–	–	–	–	–	–	–
Nc1nc2[nH]cc(CCc3ccc(C(=O)N[C@@H](CCC(=O)O)C(=O)O)cc3)c2c(=O)[nH]1 [PTX, pemetrexed]	–	–	–	–	–	0.89	0.84	0.89	0.96	0.92	–	–	–
CCCCCCOc1ccc(Cc2cnc(N)nc2N)cc1 [compound 1]	1.18	–	–	–	1.1	–	–	–	–	–	0.77	0.92	0.93
CCCCCCOc1cccc(Cc2cnc(N)nc2N)c1 [compound 2]	2.05	–	–	–	1.57	–	–	–	–	–	0.98	0.96	0.9
Nc1nc2cccc(-c3ccccc3)c2n1Cc1ccc(Cl)c(Cl)c1 [compound 3]	0.87	–	–	–	1.2	–	–	–	–	–	0.71	1.07	1.01
NCCOCCOCC(=O)Nc1nc2ncc(CNc3ccc(C(=O)NC(CCC(=O)O)C(=O)O)cc3)nc2c(=O)[nH]1 (centres unmarked) [compound 6]	1.18	1.04	0.98	1.04	1.07	–	–	–	–	–	–	–	–
NCCCNc1ccc(C(=O)NC(CCC(=O)O)C(=O)O)cc1 (centres unmarked) [compound 7]	1.1	0.71	1.07	0.96	0.96	–	–	–	–	–	–	–	–
